# Columns and labels:
# [1] = target: T1, C-C chemokine receptor type 5 (Homo sapiens, UniProt P51681); assay: (§1) Ability to displace [125I]- labeled MIP-1alpha from CCR5 receptor expressed on CHO cell membrane; assay type: cell membranes
# Target sequence in this assay (P51681 whole entry): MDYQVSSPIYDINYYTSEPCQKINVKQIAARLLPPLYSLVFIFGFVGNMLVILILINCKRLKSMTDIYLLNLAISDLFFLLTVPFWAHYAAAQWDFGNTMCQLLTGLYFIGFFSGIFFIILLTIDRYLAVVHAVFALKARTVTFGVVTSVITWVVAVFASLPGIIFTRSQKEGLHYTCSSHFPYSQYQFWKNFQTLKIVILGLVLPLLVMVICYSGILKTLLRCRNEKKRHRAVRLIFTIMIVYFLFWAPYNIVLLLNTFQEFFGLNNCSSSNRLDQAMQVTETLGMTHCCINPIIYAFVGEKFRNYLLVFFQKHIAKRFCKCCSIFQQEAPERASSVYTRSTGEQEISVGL
# [2] = test system: Human immunodeficiency virus 1; assay: In vitro antiviral activity against HIV-1 (BAL) in HeLa cells.; assay type: functional
# [3] = Half life was evaluated in rhesus; assay type: ADME; conditions: cercopithecidae, in vivo
# [4] = Volume of distribution was evaluated in rat; assay type: ADME, organism-based; conditions: in vivo, read-out: Vdss
# [5] = Oral bioavailability in Rhesus monkey; assay type: ADME, organism-based, Macaca mulatta; conditions: in vivo
# [6] = Oral bioavailability in rat; assay type: ADME, organism-based; conditions: in vivo
# [7] = Plasma clearance was evaluated in rhesus; assay type: ADME, organism-based; conditions: cercopithecidae, read-out: Clp
# [8] = Volume of distribution was evaluated in rhesus; assay type: ADME, organism-based; conditions: cercopithecidae, in vivo; read-out: Vdss
# [9] = Plasma clearance was evaluated in rat; assay type: ADME, organism-based; conditions: read-out: Clp
# [10] = Half life was evaluated in rat; assay type: ADME, organism-based; conditions: in vivo
# [11] = Inhibitory concentration measured by Peripheral blood mononuclear cells (BAL) viral assay; assay type: functional; conditions: Homo sapiens
# [12] = target: T1, C-C chemokine receptor type 5; assay: as §1; assay type: cell membranes; remark: listed apart in the source
# Target sequence in this assay (P51681 whole entry, looked up): as the sequence (P51681 whole entry) above
# [13] = Inhibitory concentration measured by peripheral blood mononuclear cells (BAL) viral assay; assay type: functional, Homo sapiens
# [14] = Oral bioavailability; assay type: ADME, organism-based; conditions: rat, in vivo
# [15] = test system: HeLa; assay: Inhibitory concentration obtained in the HeLa cell anti infectivity assay versus BAL strain; assay type: functional; conditions: Homo sapiens
# [16] = Volume of distribution was evaluated in dog; assay type: ADME, organism-based, Canis lupus familiaris; conditions: in vivo, read-out: Vdss
# [17] = Oral bioavailability in dog; assay type: ADME, organism-based, Canis lupus familiaris; conditions: in vivo
# [18] = Half life was evaluated in dog; assay type: ADME, organism-based, Canis lupus familiaris; conditions: in vivo
# [19] = Plasma clearance was evaluated in dog; assay type: ADME, organism-based, Canis lupus familiaris; conditions: read-out: Clp
# [20] = Inhibitory concentration by Peripheral blood mononuclear cells assay; assay type: functional; conditions: Homo sapiens
# [21] = Human immunodeficiency virus 1, HeLa
IC50 [1] [nM],"IC90 [2, 21] [nM]",clearance [9] [mL/min/kg],half-life [10] [h],SMILES,further results
0.2,11,–,–,O=C(O)[C@@H](CC1CCC1)N1C[C@H](CN2CCC(CCCc3ccc(C(F)(F)F)cc3)CC2)[C@@H](c2cccc(F)c2)C1,–
0.5,–,–,–,O=C(O)[C@@H](CC1CCC1)N1C[C@H](CN2CCC(CC[S+]([O-])c3ccc(F)cc3)CC2)[C@@H](c2cccc(F)c2)C1 (stereo in doubt; 30),IC90 [2]: 33 nM
1.5,33,–,–,COC(=O)C(CCC1CCN(C[C@H]2CN([C@H](CC3CC3)C(=O)O)C[C@@H]2c2cccc(F)c2)CC1)c1ccc(F)cc1 (stereo partly drawn),–
0.3,1.6,18,3.1,"O=C(O)[C@@H](CC1CCC1)N1CC(CN2CCC(CCC(F)(F)c3ccc(F)cc3)CC2)[C@@H](c2cccc(F)c2)C1 (single isomer, unassigned)",half-life [3]: 2.4 h; Vd [4]: 2.2 L/kg; bioavailability [5]: 12%; bioavailability [6]: 32%; clearance [7]: 11 mL/min/kg; Vd [8]: 1.8 L/kg; IC95 [11]: 18 nM
0.4,–,–,–,O=C(O)[C@@H](CC1CCC1)N1C[C@H](CN2CCC(CC[S+]([O-])c3ccc(F)cc3)CC2)[C@@H](c2cccc(F)c2)C1 (stereo in doubt; 31),IC90 [2]: 0.8 nM
1.1,0.4,–,–,O=C(O)[C@@H](C1CCCCC1)N1C[C@H](CN2CCC(CCS(=O)(=O)c3ccc(F)cc3)CC2)[C@@H](c2cccc(F)c2)C1,–
0.3,4,–,–,O=C(O)[C@@H](C1CCCCC1)N1C[C@H](CN2CCC(CCC(F)(F)c3ccc(F)cc3)CC2)[C@@H](c2ccccc2)C1,–
–,0.4,78,0.8,O=C(O)[C@@H](CC1CCC1)N1C[C@H](CN2CCC(CCS(=O)(=O)c3ccc(F)cc3)CC2)[C@@H](c2cccc(F)c2)C1,Vd [4]: 1.9 L/kg; bioavailability [6]: 16%; IC95 [12]: 0.2 nM; IC50 [13]: 1.6 nM
0.5,–,32,3.4,O=C(O)[C@@H](CC1CCC1)N1C[C@H](CN2CCC(CCCc3ccccc3)CC2)[C@@H](c2cccc(F)c2)C1,bioavailability [14]: 24%
3.7,100,–,–,O=C(O)[C@@H](CC1CC1)N1C[C@H](CN2CCC(CCC3(c4ccc(F)cc4)OCCO3)CC2)[C@@H](c2cccc(F)c2)C1,–
1000,–,–,–,O=C(O)[C@@H](CC1CC1)N1C[C@H](CN2CCC(CCP(=O)(O)c3ccccc3)CC2)[C@@H](c2cccc(F)c2)C1,–
4.8,33,–,–,O=C(O)[C@@H](CC1CC1)N1C[C@H](CN2CCC(CCC(CO)c3ccc(F)cc3)CC2)[C@@H](c2cccc(F)c2)C1 (stereo partly drawn),–
1.6,100,–,–,O=C(CCC1CCN(C[C@H]2CN([C@@H](C(=O)O)C3CCCCC3)C[C@@H]2c2ccccc2)CC1)c1ccc(F)cc1,–
0.9,4,–,–,CC(C)[C@H](C(=O)O)N1C[C@H](CN2CCC(CCS(=O)(=O)c3ccc(F)cc3)CC2)[C@@H](c2cccc(F)c2)C1,–
0.3,0.4,47.8,1,N#Cc1ccc(CCCC2CCN(C[C@H]3CN([C@H](CC4CCC4)C(=O)O)C[C@@H]3c3cccc(F)c3)CC2)cc1,bioavailability [14]: 7%
0.4,1.2,76,0.9,O=C(O)[C@@H](CC1CC1)N1C[C@H](CN2CCC(CCC(O)c3ccc(F)cc3)CC2)[C@@H](c2cccc(F)c2)C1 (stereo partly drawn),Vd [4]: 3.3 L/kg; bioavailability [6]: 2%; IC95 [11]: 15 nM
0.5,33,–,–,CC(C)[C@H](C(=O)O)N1C[C@H](CN2CCC(CCC(F)(F)c3ccc(F)cc3)CC2)[C@@H](c2cccc(F)c2)C1,–
–,–,–,–,O=C(O)[C@@H](CC1CCC1)N1C[C@H](CN2CCC(CCCc3ccccc3)CC2)[C@@H](c2ccccc2)C1,IC90 [15]: 1.2 nM; IC50 [13]: < 8 nM
0.8,100,–,–,CC(C)[C@H](C(=O)O)N1C[C@H](CN2CCC(CCSc3ccc(F)cc3)CC2)[C@@H](c2cccc(F)c2)C1,–
0.8,2,32,3.4,O=C(O)[C@@H](CC1CCC1)N1C[C@H](CN2CCC(CCCc3ccc(F)cc3)CC2)[C@@H](c2cccc(F)c2)C1,bioavailability [14]: 16%
19,–,–,–,COP(=O)(CCC1CCN(C[C@H]2CN([C@H](CC3CC3)C(=O)O)C[C@@H]2c2cccc(F)c2)CC1)c1ccccc1 (stereo partly drawn),–
51,–,–,–,O=C(O)C(CCC1CCN(C[C@H]2CN([C@H](CC3CC3)C(=O)O)C[C@@H]2c2cccc(F)c2)CC1)c1ccc(F)cc1 (stereo partly drawn),–
1.6,1.2,5.4,1.6,CC(O)(CCC1CCN(C[C@H]2CN([C@H](CC3CC3)C(=O)O)C[C@@H]2c2cccc(F)c2)CC1)c1ccc(F)cc1 (stereo partly drawn),Vd [4]: 3.9 L/kg; bioavailability [6]: 10%
0.06,0.4,14,7.5,"O=C(O)[C@@H](CC1CC1)N1CC(CN2CCC(CCC(F)(F)c3ccc(F)cc3)CC2)[C@@H](c2cccc(F)c2)C1 (single isomer, unassigned)",half-life [3]: 5.6 h; Vd [4]: 6.1 L/kg; Vd [16]: 3.7 L/kg; bioavailability [5]: 8%; bioavailability [6]: 3.9%; clearance [7]: 17.6 mL/min/kg; Vd [8]: 2.8 L/kg; bioavailability [17]: 37%; half-life [18]: 2.4 h; clearance [19]: 24 mL/min/kg; IC95 [11]: 12 nM; IC95 [20]: < 20 nM
0.1,4,–,–,O=C(O)[C@@H](CC1CCC1)N1C[C@H](CN2CCC(CCSc3ccc(F)cc3)CC2)[C@@H](c2cccc(F)c2)C1,–
0.2,–,–,–,"O=C(O)[C@@H](CC1CCC1)N1CC(CN2CCC(CCC(F)(F)c3ccc(F)cc3)CC2)[C@@H](c2ccccc2)C1 (single isomer, unassigned)",–

# Reference: ChEMBL document CHEMBL1136817, “1,3,4-Trisubstituted pyrrolidine CCR5 receptor antagonists: modifications of the arylpropylpiperidine side chains” (Bioorg Med Chem Lett, 2003)
